According to US20080280943A1, “METHODS AND PACKAGES TO ENHANCE SAFETY WHEN USING IMIQUIMOD TO TREAT CHILDREN DIAGNOSED WITH SKIN DISORDERS” (priority 2007, published 2008):

Assays:
[1] = tested on: molluscum contagiosum (MC) lesions; test: Study 1: randomized, vehicle-controlled, double-blind trial in pediatric subjects with molluscum contagiosum, efficacy; format: in vivo, human (pediatric subjects)
Experimental: Aldara® Cream, commercially available via prescription and manufactured by 3M Health Care Limited, Loughborough LE11 1EP England, and distributed by Graceway Pharmaceuticals, LLC, Bristol, Tenn. 37620, is evaluated in two randomized, vehicle-controlled, double-blind trials involving 702 pediatric subjects with molluscum contagiosum (MC) (470 are exposed to Aldara; median age 5 years, range 2-12 years). Subjects apply Aldara® Cream or vehicle 3 times weekly for up to 16 weeks. Complete clearance (no MC lesions) is assessed at Week 18. […] Similar to the studies conducted in adults, the most frequently reported adverse reaction from 2 studies in children with molluscum contagiosum is application site reaction. Adverse events which occur more frequently in Aldara®-treated subjects as compared with vehicle-treated subjects generally resemble those seen in studies in indications approved for adults and also included otitis media (5% Aldara vs. 3% vehicle) and conjunctivitis (3% Aldara® vs. 2% vehicle). Erythema is the most frequently reported local skin reaction. The severe local skin reactions that are reported by Aidara®-treated subjects in the pediatric studies include erythema (28%), edema (8%), scabbing/crusting (5%), flaking/scaling (5%), erosion (2%) and weeping/exudate (2%).
(§1) More particularly, the objective is to evaluate the efficacy of imiquimod cream, 5% (imiquimod) for the treatment of molluscum contagiosum (MC) lesions in pediatric subjects when the cream was applied 3 times per week (3×/wk) for up to 16 weeks. The efficacy of imiquimod is evaluated by assessing MC lesion clearance. The primary efficacy parameter is complete clearance of all MC lesions (complete clinical resolution) from treatment initiation to the week 18/efficacy visit. Secondary efficacy parameters include partial clearance, defined as ≧50% reduction from the baseline lesion count, and the change in total lesion count. Time to complete clearance is also compared between treatment groups. The secondary objective is to evaluate the safety of imiquimod. Safety assessments are conducted throughout the study. Safety was assessed through incidence and severity of adverse events (AEs); local skin reactions (LSRs) of erythema, edema, erosion/ulceration, weeping/exudates, scabbing/crusting, and flaking/scaling/dryness; skin quality assessments; vital signs measurements; general physical examinations; hematology laboratory tests; and concomitant medication use.
This is a randomized, vehicle-controlled, double-blind, parallel group, study that is conducted in children aged 2 to 12 years of age who had ≧2 clinically verified MC lesions. Enrollment is monitored to ensure at least 50% of subjects had at least 5 MC lesions, at least 50% of subjects are under 6 years of age, and a sufficient number of subjects enrolled with periocular lesions. Subjects are randomized 2:1 (imiquimod: vehicle) and apply study cream 3×/wk for up to 16 weeks (or until complete resolution of all MC lesions) to all target MC lesions. Subjects who weigh <25 kg apply up to 2 sachets of study cream, while subjects who weigh ≧25 kg apply up to 3 sachets. At the screening/treatment initiation visit, MC lesions and application area locations are recorded on a body diagram. […] At each study visit, MC lesions are counted and recorded, and safety procedures are performed. […]

[2] = Systemic absorption of imiquimod across affected skin of 22 subjects with extensive MC (serum levels, hematology); format: in vivo, human (subjects aged 2 to 12 years)
Experimental: Systemic absorption of imiquimod across the affected skin of 22 subjects aged 2 to 12 years with extensive MC involving at least 10% of the total body surface area is observed after single and multiple doses at a dosing frequency of 3 applications per week for 4 weeks. The investigator determines the dose applied, i.e., either 1, 2 or 3 packets per dose, based on the size of the treatment area and the subject's weight. […] Children aged 2-5 years receive doses of 12.5 mg (one packet) or 25 mg (two packets) of imiquimod and have median multiple-dose peak serum drug levels of approximately 0.2 or 0.5 ng/ml, respectively. Children aged 6-12 years receive doses of 12.5 mg, 25 mg, or 37.5 mg (three packets) and have median multiple dose serum drug levels of approximately 0.1, 0.15, or 0.3 ng/ml, respectively. Among the 20 subjects with evaluable laboratory assessments, the median WBC count decreases by 1.4*10^9/L and the median absolute neutrophil count decreases by 1.42*10^9/L.

[3] = Safety assessment in the vehicle-controlled MC study (N=323); format: in vivo, human (children aged 2 to 12 years)
Experimental: as §1
This is a randomized, vehicle-controlled, double-blind, parallel group, study that is conducted in children aged 2 to 12 years of age who had ≧2 clinically verified MC lesions. Enrollment is monitored to ensure at least 50% of subjects had at least 5 MC lesions, at least 50% of subjects are under 6 years of age, and a sufficient number of subjects enrolled with periocular lesions. Subjects are randomized 2:1 (imiquimod: vehicle) and apply study cream 3×/wk for up to 16 weeks (or until complete resolution of all MC lesions) to all target MC lesions. […] At the screening/treatment initiation visit, MC lesions and application area locations are recorded on a body diagram. […] At each study visit, MC lesions are counted and recorded, and safety procedures are performed. […] MC lesions are treated 3×/wk for up to 16 weeks, or until determined that all MC lesions are cleared. […]

[4] = 20 subjects with evaluable laboratory assessments

Compound: CC(C)Cn1cnc2c(N)nc3ccccc3c21 [imiquimod, 1-isobutyl-1H-imidazo[4,5-c]-quinolin-4-amine]
- partial clearance rate (≧50% reduction from baseline lesion count) at week 18 ([1]; ITT, 108/217, vehicle 45.3%, p=0.4416): 49.8%
- complete clearance rate (no MC lesions) at Week 18 ([1]; Study 1, ITT, 52/217, cream applied 3 times weekly for up to 16 weeks, vehicle 26% (28/106)): 24.0%
- efficacy versus vehicle cream with respect to complete and partial clearance of MC lesions ([1]; dosed 3×/wk for up to 16 weeks): not statistically significantly more effective than vehicle cream
- distribution in time to complete clearance versus vehicle ([1]; generalized Wilcoxon Test, p=0.7830): not significantly different
- median percent reduction in MC lesions at week 18 ([1]; vehicle 37.3%): 48.1%
- decrease in median WBC count [2, 4]: 1.4e+09 L⁻¹
- decrease in median absolute neutrophil count [2, 4]: 1.42e+09 L⁻¹
- median multiple-dose peak serum drug level ([2]; children aged 2-5 years, 12.5 mg (one packet)): approximately 0.2 ng/ml
- peak serum imiquimod concentrations following both single and multiple doses ([2]; children, topical imiquimod (summary statement)): < 2 ng/mL
- Cmax ([2]; human, in vivo, 25 mg, single person, 2 packets of study drug per dose, read-out: Cmax after multiple dosing): 9.66 ng/mL
- median WBC count decreased by ([2]; summary statement): about 1.4 *109/L
- median absolute neutrophil count decreased by ([2]; summary statement): about 1.42 *109/L
- overall safety conclusion ([3]; children ages 2 to 12 with MC, dosed 3×/wk for up to 16 weeks): safe
- subjects discontinued from the treatment period due to AEs ([3]; none severe in intensity, vehicle 1): 2 subjects
- subjects reporting at least 1 AE considered possibly or probably related to study drug ([3]; vehicle 19.8%, p=0.013): 33.6%
